Legend:
IL-10 [1] = assay: Serum IL-10 by ELISA in GA-treated MS patients; type: in vivo, human
Source text: (§1) Approximately 60 cc of blood was obtained by venipuncture from each MS patient pre-treatment and at successive time points during treatment (3 months, 6 months, 9-12 months and 24 months). PBMC were purified using Ficoll-Hypaque gradients as described in the supplier's protocol (ICN Biomedicals Inc. Ohio, USA). Samples from collaborating centers were sent via overnight FedEx™ delivery at room temperature and processed immediately upon arrival.
(§2) Interleukin-18 and caspase-1 levels were detected by human ELISA kits (Sandwich ELISA, Bender Nedaystems, USA). The sensitivity of the ELISA was 9.2 and 3.3 pg/ml for IL-18 and caspase-1 respectively. TGF-β, TNF-α, IL-4, IFN-γ, IL-17 and IL-10 levels were detected by human ELISA kits from ebioscience (San Diego Calif., 92121 USA). The sensitivity of the ebioscience kits were 60 pg/ml, 4 pg/ml, 2 pg/ml, 4 pg/ml, 4 pg/ml and 2 pg/ml respectively. BDNF was detected by the Human BDNF ELISA kit from Chemicon International (catalog #CYT306). The sensitivity of the BDNF ELISA was 7.8 pg/ml. […] Duplicates should be within 20% of the mean.

IL-4/IFN-γ ratio = IL-4/IFN-γ ratio by ELISPOT in ex-vivo PBMC of GA-treated MS patients; type: cell-based, human; settings: for IL-4/IFN-γ RATIO (ELISPOT): CD3/CD28 stimulated PBMC
Source text: as §1
(§3) Human IFN-γ (Th1 indicator) and IL-4 (Th2 indicator) were measured by the ELISPOT assay according to the manufacturer's protocol (BD Biosciences, San Diego, Calif., USA). Briefly, ELISPOT plates (PVDF plate, Millipore Corporation, MA, USA) were coated with 100 μl/well of 5 μg/ml capture antibody at 4° C. over night. The plates were then washed with PBS, and incubated with 200 μl/well of blocking solution (culture medium) for 2 hours. PBMC (2×10^5 cells/well for IFN-γ and 4×10^5 cells/well for IL-4 detection) and antigen (GA 40 and 100 μg/ml, TT 5 μg/ml, CD3Ab (2.5 μg/ml)/CD28 Ab (1 μg/ml)) was added and cultured overnight at 37° C. in a 5% CO2 incubator. Samples were tested in triplicate wells in response to each antigen. After overnight culture, the plates were washed twice with deionized water and three times with PBS, then incubated with 100 μl of 2.0 μg/ml biotinylated antibody for 2 hours at room temperature. The plates were then washed three times with wash buffer (0.05% Tween-20 PBS), and incubated with 100 μl of 1:100 dilution of Avidin-HRP for 1 hour at room temperature and washed three times with wash buffer. Finally 100 μl of AEC (3-amino-9-ethyl-carbazole) substrate was added and the reaction was stopped by washing plates with distilled water. Spots were counted and analyzed by CTL Analyzers LLC ELISPOT Plate Reader (Cleveland, Ohio, USA).

IL-10 [2] = assay: IL-10 by ELISA in ex-vivo PBMC supernatant of GA-treated MS patients; type: cell-based, human
Experimental: as §1
(§4) 2×10^5 PBMC/well were seeded in 96 well U-bottom micro titer plate in the absence of antigen (unstimulated condition) (US) or the presence of GA at 40 and 100 μg/ml (Teva Pharmaceutical Industries, Ltd., Israel), tetanus toxoid (TT 5 μg) obtained from UMASS (University of Mass, Worcester, Mass.). The latter was used as a control antigen. Supernatants were collected from cultured cells at days 1, 3 and 5 for various assays. After 5 days, 1 μCi ^3H-thymidine was added. Cells were harvested 18 hours later using TOMTEC cell harvester (TOMTEC, Hamden Conn.). Incorporated radioactivity was measured using a liquid Scintillation counter (Wallac MicroBeta Trilux, PerkinElmer, Boston, Mass.).
as §2

[3] = system: class II MHC molecules of mouse and human origin; settings: cited from earlier work
IFN-γ = IFN-γ ELISPOT in ex-vivo PBMC of GA-treated MS patients; type: cell-based, human; settings: CD3/CD28 stimulated PBMC
Source text: as §1, §3

BDNF = BDNF by ELISA in supernatant of GA-stimulated PBMC; type: cell-based, human
Experimental: as §1
as §4, with “Cells were harvested 18 hours later using TOMTEC cell harvester (TOMTEC, Hamden Conn.).” left out
Interleukin-18 and caspase-1 levels were detected by human ELISA kits (Sandwich ELISA, Bender Nedaystems, USA). […] TGF-β, TNF-α, IL-4, IFN-γ, IL-17 and IL-10 levels were detected by human ELISA kits from ebioscience (San Diego Calif., 92121 USA). […] BDNF was detected by the Human BDNF ELISA kit from Chemicon International (catalog #CYT306). […]

In the case of Glatiramer acetate [GA], the “Serum IL-10 level” value (IL-10 [1]; HR/NR, 3 mo) is reported as 40 ± 7.0 pg/mL, the “Serum IL-10 level” value (IL-10 [1]; HR/NR, 6 mo) is reported as 37 ± 8.3 pg/mL and the “Serum IL-10 level” value (IL-10 [1]; HR/NR, 9-12 mo) is reported as 40 ± 7.0 pg/mL. For the same substance, the “Serum IL-10 level” value (IL-10 [1]; HR/NR, 24 mo) was 37.6 ± 5 pg/mL, the “Serum IL-10 level” value (IL-10 [1]; HR/NR, Pre-Rx) was 38 ± 9 pg/mL and the “Serum IL-10 level” value (IL-10 [1]; R, 3 mo) was 47 ± 8.1 pg/mL. For the same substance, the “Serum IL-10 level” value (IL-10 [1]; R, 6 mo) was 67 ± 11 pg/mL, the “Serum IL-10 level” value (IL-10 [1]; R, 9-12 mo) was 69.8 pg/mL and the “Serum IL-10 level” value (IL-10 [1]; R, 24 mo) was 56 ± 18 pg/mL. For the same substance, the “Serum IL-10 level” value (IL-10 [1]; R, Pre-Rx) was 32 ± 4.5 pg/mL, the “Δ IL-10 6 months, Median (Non-Responders)” value (IL-10 [1]; serum, change from baseline) was −1.5 and the “Δ IL-10 6 months, Median (Responders)” value (IL-10 [1]; serum, change from baseline) was 15. For the same substance, the “Δ IL-10 9 months, Median (Non-Responders)” value (IL-10 [1]; serum, change from baseline) was −2, the “Δ IL-10 9 months, Median (Responders)” value (IL-10 [1]; serum, change from baseline) was 42 and the “Δ IL-10 24 months, Median (Non-Responders)” value (IL-10 [1]; serum, change from baseline) was 1. For the same substance, the “Δ IL-10 24 months, Median (Responders)” value (IL-10 [1]; serum, change from baseline) was 29, the “IL-4/IFN-γ RATIO (ELISPOT)” value (IL-4/IFN-γ ratio; HR/NR, 3 mo) was 0.08 ± 0.02 and the “IL-4/IFN-γ RATIO (ELISPOT)” value (IL-4/IFN-γ ratio; HR/NR, 6 mo) was 0.06 ± 0.05. The “IL-4/IFN-γ RATIO (ELISPOT)” value (IL-4/IFN-γ ratio; HR/NR, 9-12 mo) was 0.08 ± 0.05, the “IL-4/IFN-γ RATIO (ELISPOT)” value (IL-4/IFN-γ ratio; HR/NR, 24 mo) was 0.10 ± 0.05 and the “IL-4/IFN-γ RATIO (ELISPOT)” value (IL-4/IFN-γ ratio; HR/NR, Baseline) was 0.12 ± 0.05. The “IL-4/IFN-γ RATIO (ELISPOT)” value (IL-4/IFN-γ ratio; R, 3 mo) was 0.24 ± 0.04, the “IL-4/IFN-γ RATIO (ELISPOT)” value (IL-4/IFN-γ ratio; R, 6 mo) was 0.32 ± 0.07 and the “IL-4/IFN-γ RATIO (ELISPOT)” value (IL-4/IFN-γ ratio; R, 9-12 mo) was 0.34 ± 0.08. For the same substance, the “IL-4/IFN-γ RATIO (ELISPOT)” value (IL-4/IFN-γ ratio; R, 24 mo) was 0.25 ± 0.07, the “IL-4/IFN-γ RATIO (ELISPOT)” value (IL-4/IFN-γ ratio; R, Baseline) was 0.11 ± 0.02 and the “IL-4/IFN-γ ratio in unstimulated and in anti-CD3/CD28 stimulated PBMC” value (IL-4/IFN-γ ratio; GA-R, during treatment versus pre-treatment) was “significantly higher among GA-R during treatment compared to pre-treatment levels”. For the same substance, the “Supernatant IL-10 level” value (IL-10 [2]; HR/NR, 3 mo) was 160 ± 65 pg/mL, the “Supernatant IL-10 level” value (IL-10 [2]; HR/NR, 6 mo) was 153 ± 69 pg/mL and the “Supernatant IL-10 level” value (IL-10 [2]; HR/NR, 9-12 mo) was 181 ± 22 pg/mL. For the same substance, the “Supernatant IL-10 level” value (IL-10 [2]; HR/NR, 24 mo) was 200 ± 59 pg/mL, the “Supernatant IL-10 level” value (IL-10 [2]; HR/NR, Pre-Rx) was 143 ± 61 pg/mL and the “Supernatant IL-10 level” value (IL-10 [2]; R, 3 mo) was 200 ± 65 pg/mL. For the same substance, the “Supernatant IL-10 level” value (IL-10 [2]; R, 6 mo) was 310 ± 64 pg/mL, the “Supernatant IL-10 level” value (IL-10 [2]; R, 9-12 mo) was 249 ± 70 pg/mL and the “Supernatant IL-10 level” value (IL-10 [2]; R, 24 mo) was 255 ± 45 pg/mL. For the same substance, the “Supernatant IL-10 level” value (IL-10 [2]; R, Pre-Rx) was 170 ± 60 pg/mL, the “binding to class II MHC molecules” value [3] was “binds promiscuously and with high affinity” and the “IFN-γ expression (ELISPOT, mean number of spots)” value (shortened to “IFN-γ expression”) (IFN-γ; HR/NR, 3 mo) was 206 ± 24. For the same substance, the “IFN-γ expression” value (IFN-γ; HR/NR, 6 mo) was 233 ± 26, the “IFN-γ expression” value (IFN-γ; HR/NR, 9-12 mo) was 218 ± 34 and the “IFN-γ expression” value (IFN-γ; HR/NR, 24 mo) was 186 ± 35. For the same substance, the “IFN-γ expression” value (IFN-γ; HR/NR, Baseline) was 192 ± 26, the “IFN-γ expression” value (IFN-γ; R, 3 mo) was 182 ± 18 and the “IFN-γ expression” value (IFN-γ; R, 6 mo) was 150 ± 15. For the same substance, the “IFN-γ expression” value (IFN-γ; R, 9-12 mo) was 110 ± 19, the “IFN-γ expression” value (IFN-γ; R, 24 mo) was 86 ± 14 and the “IFN-γ expression” value (IFN-γ; R, Baseline) was 197 ± 28. The “BDNF production with GA used as ex-vivo stimulus” value (BDNF; GA versus TT as stimulus of PBMC) was “slightly higher level compared to TT” and the “supernatant BDNF levels from GA-stimulated PBMCs” value (BDNF; GA-R group, 3 months, p=0.01, not in the GA HR/NR group) was “significant increase at 3 months during treatment compared to baseline”.

From patent US9687522B2, “Methods of treating a subject afflicted with an autoimmune disease using predictive biomarkers of clinical response to glatiramer acetate therapy in multiple sclerosis” (TEVA PHARMACEUTICAL INDUSTRIES, LTD., priority 2010, dated 2017)
